In US9409870B2, “Compounds” (CHIESI FARMACEUTICI S.p.A., priority 2014, dated 2016):
Structures can show the parent of a compound that is named as a salt.

Target: T1, human neutrophil elastase (HNE) (Homo sapiens, UniProt P08246)
T1 construct: purchased Sigma E8140
T1 sequence (P08246 30-247 limits assumed): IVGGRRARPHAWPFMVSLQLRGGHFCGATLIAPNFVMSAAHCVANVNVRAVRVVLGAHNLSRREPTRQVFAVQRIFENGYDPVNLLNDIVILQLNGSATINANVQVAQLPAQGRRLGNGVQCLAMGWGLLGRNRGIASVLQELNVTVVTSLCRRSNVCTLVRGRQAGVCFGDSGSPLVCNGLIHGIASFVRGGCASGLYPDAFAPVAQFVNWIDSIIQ
Assay: HNE enzyme activity assay (fluorogenic peptide substrate MeOSuc-Ala-Ala-Pro-Val-AMC)
Type: biochemical
Conditions: human leukocyte elastase 0.00072 U/mL, substrate 100 μM, 25° C., 30 minutes, pH 7.5; at least two separate experiments; read-out: FINE inhibition (HNE enzyme inhibition, IC50 values)
Experimental: Compounds of this invention were tested for potency in a human neutrophil elastase (HNE) enzyme activity assay.
Assays were performed in 96-well plates in a total assay volume of 100 μL. The final concentration of elastase enzyme (human leukocyte elastase, Sigma E8140) was 0.00072 U/mL. The peptide substrate (MeOSuc-Ala-Ala-Pro-Val-AMC, Calbiochem #324740) was used at a final concentration of 100 μM. The final concentration of DMSO was 1% in the assay buffer (0.05M Tris.HCl, 0.1M NaCl, 0.1M CaCl2, 0.0005% brij-35, pH 7.5). The enzymatic reaction was started by addition of the enzyme and incubated at 25° C. for 30 minutes. After incubation, the reaction was stopped by addition of soybean trypsin inhibitor (Sigma T9003) at a final concentration of 50 μg/well. Fluorescence was measured using a Molecular Devices fluorescence plate reader using 380 nm excitation and 460 nm emission wavelengths.
A dose response to each compound was performed and the effect of compound in each experiment was expressed as a percentage inhibition of the control enzyme fluorescence. Dose response curves were plotted and compound potency (IC50) was determined. Compounds were tested in at least two separate experiments.

IC50 | SMILES
1 to 10 nM | Cc1c(-c2ccnn2-c2ccc(C#N)cc2)n(C(=O)NCCC[N+](C)(C)C)c(=O)n1-c1cccc(C(F)(F)F)c1 [Example 24, Benzenesulfonate 3-[({5-[1-(4-cyanophenyl)-1H-pyrazol-5-yl]-4-methyl-2-oxo-3-[3-(trifluoromethyl)phenyl]-2,3-dihydro-1H-imidazol-1-yl}carbonyl)amino]-N,N,N-trimethylpropan-1-aminium]
1 to 10 nM | Cc1c(-c2ccnn2-c2ccc(C#N)cc2)n(C(=O)NCC[N+](C)(C)C)c(=O)n1-c1cccc(C(F)(F)F)c1 [Example 25, Benzenesulfonate 2-[({5-[1-(4-cyanophenyl)-1H-pyrazol-5-yl]-4-methyl-2-oxo-3-[3-(trifluoromethyl)phenyl]-2,3-dihydro-1H-imidazol-1-yl}carbonyl)amino]-N,N,N-trimethylethanaminium]
1 to 10 nM | CCCCn1c(-c2ccnn2-c2ccc(C#N)cc2)c(C)n(-c2cccc(C(F)(F)F)c2)c1=O [Example 26, 4-(5-{3-Butyl-5-methyl-2-oxo-1-[3-(trifluoromethyl)phenyl]-2,3-dihydro-1H-imidazol-4-yl}-1H-pyrazol-1-yl)benzonitrile]
< 1 nM | Cc1c(-c2ccnn2-c2ccc(C#N)cc2)n(S(C)(=O)=O)c(=O)n1-c1cccc(C(F)(F)F)c1 [Example 27, 4-(5-{5-Methyl-3-(methylsulfonyl)-2-oxo-1-[3-(trifluoromethyl)phenyl]-2,3-dihydro-1H-imidazol-4-yl}-1H-pyrazol-1-yl)benzonitrile]
1 to 10 nM | CCCC(C)n1c(-c2ccnn2-c2ccc(C#N)cc2)c(C)n(-c2cccc(C(F)(F)F)c2)c1=O (stereo not drawn) [Example 28, 4-{5-[5-Methyl-3-(1-methyl-butyl)-2-oxo-1-(3-trifluoromethyl-phenyl)-2,3-dihydro-1H-imidazol-4-yl]pyrazol-1-yl}-benzonitrile]
1 to 10 nM | Cc1c(-c2ccnn2-c2ccc(C#N)cc2)n(CCN(C)C)c(=O)n1-c1cccc(C(F)(F)F)c1 [Example 29, 4-{5-[3-(2-Dimethylamino-ethyl)-5-methyl-2-oxo-1-(3-trifluoromethylphenyl)-2,3-dihydro-1H-imidazol-4-yl]-pyrazol-1-yl}-benzonitrile]
1 to 10 nM | Cc1c(-c2ccnn2-c2ccc(C#N)cc2)n(CCCN(C)C)c(=O)n1-c1cccc(C(F)(F)F)c1 [Example 30, 4-{5-[3-(3-Dimethylamino-propyl)-5-methyl-2-oxo-1-(3-trifluoromethylphenyl)-2,3-dihydro-1H-imidazol-4-yl]-pyrazol-1-yl}-benzonitrile]
1 to 10 nM | CCCS(=O)(=O)n1c(-c2ccnn2-c2ccc(C#N)cc2)c(C)n(-c2cccc(C(F)(F)F)c2)c1=O [Example 31, 4-{5-[5-Methyl-2-oxo-3-(propane-1-sulfonyl)-1-(3-trifluoromethyl-phenyl)-2,3-dihydro-1H-imidazol-4-yl]-pyrazol-1-yl}-benzonitrile]
< 1 nM | Cc1c(-c2ccnn2-c2ccc(C#N)cc2)n(S(=O)(=O)C2CC2)c(=O)n1-c1cccc(C(F)(F)F)c1 [Example 32, 4-{5-[3-Cyclopropanesulfonyl-5-methyl-2-oxo-1-(3-trifluoromethyl-phenyl)-2,3-dihydro-1H-imidazol-4-yl]-pyrazol-1-yl}-benzonitrile]
1 to 10 nM | CCNS(=O)(=O)n1c(-c2ccnn2-c2ccc(C#N)cc2)c(C)n(-c2cccc(C(F)(F)F)c2)c1=O [Example 33, 5-[2-(4-Cyano-phenyl)-2H-pyrazol-3-yl]-4-methyl-2-oxo-3-(3-trifluoromethylphenyl)-2,3-dihydro-imidazole-1-sulfonic acid ethylamide]
< 1 nM | Cc1c(-c2ccnn2-c2ccc(C#N)cc2)n(S(=O)(=O)NC2CCCC2)c(=O)n1-c1cccc(C(F)(F)F)c1 [Example 34, 5-[2-(4-Cyano-phenyl)-2H-pyrazol-3-yl]-4-methyl-2-oxo-3-(3-trifluoromethylphenyl)-2,3-dihydro-imidazole-1-sulfonic acid cyclopentylamide]
1 to 10 nM | Cc1c(-c2ccnn2-c2ccc(C#N)cc2)n(S(=O)(=O)NC2CC2)c(=O)n1-c1cccc(C(F)(F)F)c1 [Example 35, 5-[2-(4-Cyano-phenyl)-2H-pyrazol-3-yl]-4-methyl-2-oxo-3-(3-trifluoromethylphenyl)-2,3-dihydro-imidazole-1-sulfonic acid cyclopropylamide]
1 to 10 nM | Cc1c(-c2ccnn2-c2ccc(C#N)cc2)n(CC(=O)N2CCCC2)c(=O)n1-c1cccc(C(F)(F)F)c1 [Example 36, 4-{5-[5-Methyl-2-oxo-3-(2-oxo-2-pyrrolidin-1-yl-ethyl)-1-(3-trifluoromethylphenyl)-2,3-dihydro-1H-imidazol-4-yl]-pyrazol-1-yl}-benzonitrile]
1 to 10 nM | Cc1c(-c2ccnn2-c2ccc(C#N)cc2)n(CC(=O)N(C)C)c(=O)n1-c1cccc(C(F)(F)F)c1 [Example 37, 2-[5-[2-(4-Cyano-phenyl)-2H-pyrazol-3-yl]-4-methyl-2-oxo-3-(3-trifluoromethyl-phenyl)-2,3-dihydro-imidazol-1-yl]-N,N-dimethyl-acetamide]
1 to 10 nM | Cc1c(-c2ccnn2-c2ccc(C#N)cc2)n(CC(=O)N2CCN(C)CC2)c(=O)n1-c1cccc(C(F)(F)F)c1 [Example 38, 4-{5-[5-Methyl-3-[2-(4-methyl-piperazin-1-yl)-2-oxo-ethyl]-2-oxo-1-(3-trifluoromethyl-phenyl)-2,3-dihydro-1H-imidazol-4-yl]-pyrazol-1-yl}-benzonitrile]
10 to 50 nM | Cc1c(-c2ccnn2-c2ccc(C#N)cc2)n(CC(=O)NCCCN(C)C)c(=O)n1-c1cccc(C(F)(F)F)c1 [Example 39, 2-[5-[2-(4-Cyano-phenyl)-2H-pyrazol-3-yl]-4-methyl-2-oxo-3-(3-trifluoromethyl-phenyl)-2,3-dihydro-imidazol-1-yl]-N-(3-dimethylaminopropyl)-acetamide formic acid salt]
1 to 10 nM | Cc1c(-c2ccnn2-c2ccc(C#N)cc2)n(CC(=O)N(C)C2CCC2)c(=O)n1-c1cccc(C(F)(F)F)c1 [Example 40, 2-[5-[2-(4-Cyano-phenyl)-2H-pyrazol-3-yl]-4-methyl-2-oxo-3-(3-trifluoromethyl-phenyl)-2,3-dihydro-imidazol-1-yl]-N-cyclobutyl-N-methyl-acetamide]
< 1 nM | Cc1c(-c2ccnn2-c2ccc(C#N)cc2)n(C(=O)NC2CCC2)c(=O)n1-c1cccc(C(F)(F)F)c1 [Example 41, 5-[2-(4-Cyano-phenyl)-2H-pyrazol-3-yl]-4-methyl-2-oxo-3-(3-trifluoromethyl-phenyl)-2,3-dihydro-imidazole-1-carboxylic acid cyclobutylamide]
< 1 nM | Cc1c(-c2ccnn2-c2ccc(C#N)cc2)n(C(=O)NC2CC2)c(=O)n1-c1cccc(C(F)(F)F)c1 [Example 42, 5-[2-(4-Cyano-phenyl)-2H-pyrazol-3-yl]-4-methyl-2-oxo-3-(3-trifluoromethyl-phenyl)-2,3-dihydro-imidazole-1-carboxylic acid cyclopropylamide]
< 1 nM | CCS(=O)(=O)N1CCC(NC(=O)n2c(-c3ccnn3-c3ccc(C#N)cc3)c(C)n(-c3cccc(C(F)(F)F)c3)c2=O)CC1 [Example 43, 5-[2-(4-Cyano-phenyl)-2H-pyrazol-3-yl]-4-methyl-2-oxo-3-(3-trifluoromethyl-phenyl)-2,3-dihydro-imidazole-1-carboxylic acid (1-ethanesulfonyl-piperidin-4-yl)-amide]
< 1 nM | Cc1c(-c2ccnn2-c2ccc(C#N)cc2)n(C(=O)NC2CCOCC2)c(=O)n1-c1cccc(C(F)(F)F)c1 [Example 44, 5-[2-(4-Cyano-phenyl)-2H-pyrazol-3-yl]-4-methyl-2-oxo-3-(3-trifluoromethyl-phenyl)-2,3-dihydro-imidazole-1-carboxylic acid (tetrahydro-pyran-4-yl)-amide]
< 1 nM | Cc1c(-c2ccnn2-c2ccc(C#N)cc2)n(C(=O)NC2CCCC2)c(=O)n1-c1cccc(C(F)(F)F)c1 [Example 45, 5-[2-(4-Cyano-phenyl)-2H-pyrazol-3-yl]-4-methyl-2-oxo-3-(3-trifluoromethyl-phenyl)-2,3-dihydro-imidazole-1-carboxylic acid cyclopentylamide]
< 1 nM | Cc1c(-c2ccnn2-c2ccc(C#N)cc2)n(C(=O)N[C@@H]2CCN(C)C2)c(=O)n1-c1cccc(C(F)(F)F)c1 [Example 46, 5-[2-(4-Cyano-phenyl)-2H-pyrazol-3-yl]-4-methyl-2-oxo-3-(3-trifluoromethyl-phenyl)-2,3-dihydro-imidazole-1-carboxylic acid ((R)-1-methyl-pyrrolidin-3-yl)-amide]
< 1 nM | Cc1c(-c2ccnn2-c2ccc(C#N)cc2)n(C(=O)N[C@H]2CCN(C)C2)c(=O)n1-c1cccc(C(F)(F)F)c1 [Example 47, 5-[2-(4-Cyano-phenyl)-2H-pyrazol-3-yl]-4-methyl-2-oxo-3-(3-trifluoromethyl-phenyl)-2,3-dihydro-imidazole-1-carboxylic acid ((S)-1-methyl-pyrrolidin-3-yl)-amide]
